Data set [1] deals with HCT116 human colon cancer cells with high expression of KRAS G13D. The experiment in a line: Cell Titer-Glo cell viability, HCT116 cells (72 h). It counts as cell-based. Conditions: HCT-116. An excerpt: (§1) Effect Example 2: Pharmacodynamic Assay 2 (Determination of the efficacy of the compounds of the present disclosure on HCT116 human colon cancer cells with high expression of KRAS G13D and A549 human non-small cell lung cancer cells with high expression of KRAS G12S)
(§2) The following method was used to determine the effects of the compounds of the present disclosure on tumor cell proliferation.
(§3) For KRAS G13D subtype, HCT116 human colon cancer cell was used. For KRAS G12S subtype, A549 human non-small cell lung cancer cell was used. The efficacy of the compounds in inhibiting cancer cell viability was determined. HCT116 cells or A549 cells were cultured in a DMEM medium containing 10% fetal bovine serum, 100 U penicillin and […] streptomycin. The cells were cultured in an incubator with 5% CO2 at 37° C. Cancer cell viability was evaluated by determining the content of ATP with Cell Titer-Glo® kit (Luminescent Cell Viability Assay kit, please refer to the manufacturer's instructions for use) and evaluating the inhibition of cell growth.
(§4) The experimental method was proceeded in accordance with the steps in the instructions for the kit, and was described briefly as follows. The test compounds were first dissolved in DMSO to prepare stock solutions, and then the stock solutions were subjected to gradient dilution with the culture media of the corresponding cells, thereby preparing test samples. The final concentrations of the compounds were in the range of 30 μM to 0.01 nM. Tumor cells in logarithmic growth phase were seeded into a 96-well cell culture plate at an appropriate density. After the cell culture plate was left overnight in an incubator with 5% CO2 at 37° C., the test compound samples were added thereto and then the cells were further cultured for 72 hours. After the incubation was complete, an appropriate volume of Cell Titer-Glo® reagent was added into each well, and the cells were incubated at 37° C. for 1 to 4 hours. Then, the […] was read on a microplate reader. The percentage inhibition rates of the compounds at each concentration point were calculated by comparing the absorbance values of the sample wells with that of the control group (0.3% DMSO), and then non-linear regression analysis of the concentration of the compound vs inhibition rate was performed by using GraphPad Prism 5 software, thereby obtaining IC50 values indicating the inhibitory effects of the compounds on cell proliferation.

Data set [2] concerns A549 human non-small cell lung cancer cells with high expression of KRAS G12S. Put plainly: Cell Titer-Glo cell viability, A549 cells (72 h). It counts as cell-based.
Source text: as §1, §2, §3, §4
On the technique in general: Cellular ATP, detected with luciferase, serves as a proxy for viable cell number.

The nature of data set [3]: Safety by body weight change and animal deaths in the MIAPaCa-2 xenograft study. It counts as in vivo. As to conditions: for Weight at the Initiation of Administration: baseline. On the procedure:
Experimental operation: BALB/c nude mice, female, 6- to 8-weeks old, weighing about 17.6 g to 21.1 g. Each mouse was subcutaneously inoculated with 5×10^6 MIAPaCa-2 cells (with Matrigel; the volume ratio was 1:1) in the right flank. The administration was initiated when the average tumor volume reached about 100 cubic millimeters. The test compounds were orally administered daily by intragastric injection (6 mice in each group) for a total of 16 or 23 days. Tumor volumes were measured three times a week. The volume was measured in cubic millimeters and calculated by the following formula: tumor volume (mm^3)=½×(a×b^2) (where a represented the long diameter and b represented the short diameter). The anti-tumor efficacy of the compound was evaluated by TGI (%).The calculation formula was as follows: TGI %=(1−T/C)×100% (T and C were the relative tumor volumes (RTV) of a mouse in the treatment group and a mouse in the control group at a specific time point), respectively. Safety was evaluated according to the changes of the body weight of the animals and animal deaths.

[4] abbreviates: 30 mg/kg (Day 0 to Day 9) + 15 mg/kg (Day 10 to Day 16).
Where [5] appears, read: 100 mg/kg (Day 0 to Day 9) + 50 mg/kg (Day 10 to Day 16) + 100 mg (Day 17 to Day 23).

In general, IC50 refers to the concentration that gives 50% inhibition. Low values mean greater potency in that assay, high ones weaker potency in that assay.

As for `C=CC(=O)N1CCN(c2c(C#N)c(=O)n(-c3ccccc3C(C)C)c3cc(-c4c(C)ccc5[nH]ncc45)c(Cl)cc23)[C@@H](C)C1` (single isomer, unassigned) [Compound I-2-2], in data set [1], the concentration for half-maximal inhibition (IC50) is above 3000 nM. Moreover, in data set [2], the IC50 is above 3000 nM. For the same compound, in data set [3] (setting [4]), the “Weight Change Rate (%)” value is recorded as “+7.53%”, the “Weight on Day 23” value was 21.3 g and the “Weight at the Initiation of Administration” value turned out to be 19.8 g. Besides, in data set [3] (setting [5]), the “Weight Change Rate (%)” value is given as “+12.32%”, the “Weight on Day 23” value came out at 22.4 g and the “Weight at the Initiation of Administration” value is 20.0 g.

The values above are taken from US20220064141A1, “BENZOPYRIDONE HETEROCYCLIC COMPOUND AND USE THEREOF” (BrightGene Bio-Medical Technology Co., Ltd., priority 2019, published 2022).
